ChEMBL document CHEMBL2034901, “Novel 3,6,7-substituted pyrazolopyrimidines as positive allosteric modulators for the hydroxycarboxylic acid receptor 2 (GPR109A)” (J Med Chem, 2012)

Key:
[1] = target: Hydroxycarboxylic acid receptor 2 (Homo sapiens) (UniProt Q8TDS4); assay: Positive allosteric activity at GPR109A in human HEK cells assessed as shift in EC50 of nicotinic acid at 3 uM pretreated for 30 mins measured after 90 mins by [35S]-GTPgammaS binding assay; assay type: functional, cell-based; conditions: HEK293
Hydroxycarboxylic acid receptor 2 (Homo sapiens), sequence (Q8TDS4 whole entry): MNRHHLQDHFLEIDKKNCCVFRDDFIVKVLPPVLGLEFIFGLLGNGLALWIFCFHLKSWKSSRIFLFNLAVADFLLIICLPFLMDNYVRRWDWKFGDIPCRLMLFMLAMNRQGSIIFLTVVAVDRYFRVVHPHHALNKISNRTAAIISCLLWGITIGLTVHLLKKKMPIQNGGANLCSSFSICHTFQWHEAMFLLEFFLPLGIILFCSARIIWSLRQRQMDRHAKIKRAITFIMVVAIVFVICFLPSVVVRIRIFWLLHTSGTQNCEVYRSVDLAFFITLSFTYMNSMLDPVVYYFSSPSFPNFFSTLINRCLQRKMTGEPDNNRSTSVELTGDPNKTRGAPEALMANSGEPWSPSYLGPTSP

[2] = target: Hydroxycarboxylic acid receptor 2 (Homo sapiens) (UniProt Q8TDS4); assay: Positive allosteric activity at GPR109A in human HEK cells assessed as shift in EC50 of nicotinic acid at 1 uM pretreated for 30 mins measured after 90 mins by [35S]-GTPgammaS binding assay; assay type: functional, cell-based; conditions: HEK293

Row | SMILES | Emax [1] [%] | Emax [2] [%]
1 | Cc1c(C(=O)NCCOc2ccccc2)cnc2c(-c3ccc(OC(C)C)cc3)cnn12 | 123 | 111
2 | CCc1c(C(=O)NCCOc2ccccc2)cnc2c(-c3ccc(C(C)C)cc3)cnn12 | 129 | 122
3 | Cc1c(C(=O)NCCOc2ccccc2)cnc2c(-c3ccc(Cl)c(Cl)c3)cnn12 | 114 | –
4 | Cc1c(C(=O)NCCNc2ccccc2)cnc2c(-c3ccc(C(C)C)cc3)cnn12 | 129 | 120
